# Measured values as given in patent publication US20170209473A1, “ADIPONECTIN SECRETION REGULATOR” (THE UNIVERSITY OF TOKYO, priority 2014, published 2017).
# What was measured:
# Format in all cases: cell-based, Mouse
# adiponectin = assay: Adiponectin expression by adipocytes, reducing SDS-PAGE / Western blotting of culture supernatant; details: 3T3-L1-derived adipocytes, 24 hours serum-free DMEM, FIG. 1
# Protocol: (§1) Mouse 3T3-L1 fibroblasts in a confluent state were induced with insulin to differentiate into adipocytes. The cells were then cultured for 48 hours in a DMEM medium containing 10% FBS. The cells were then cultured for 24 hours in a serum-free DMEM medium including L-fucose and/or D-glucose at the concentrations for each test section indicated in Table 1.
# (§2) After culturing, the culture supernatant was collected and mixed with an equal amount of reducing SDS-PAGE (polyacrylamide gel electrophoresis) loading buffer and held for 10 minutes at 100° C., a 5-10-μL sample for each lane was subjected to SDS-PAGE, and the nuclear-receptor-type transcription factor PPAR-gamma, actin as an internal standard protein, and adiponectin were detected by a Western blotting method using specific antibodies for each in accordance with the usual method. A near-infrared fluorescence imager (“Odyssey Fc,” manufactured by LI-COR, Inc.) was used for the detection, and the relative expression levels of each protein were compared.
# [1] = tested on: nuclear-receptor-type transcription factor PPAR-gamma; assay: PPAR-gamma expression in adipocytes, Western blotting; details: 3T3-L1-derived adipocytes, 24 hours, FIG. 1
# Protocol: as §1, §2
# [2] = tested on: adiponectin monomers, trimers, hexamers and multimers; assay: Adiponectin multimerization state, non-reducing SDS-PAGE / Western blotting of culture supernatant; details: FIG. 2
# Protocol: as §1
# The cell culture supernatant in the same test sections as in Test Example 1 was collected, equivalent samples for each test section were subjected to non-reducing SDS-PAGE, and adiponectin monomers appearing at a molecular weight position of approximately 30 kDa, trimers appearing at a position of approximately 100 kDa, hexamers appearing at a position of approximately 200 kDa, and multimers appearing at higher molecular weight positions were detected by a Western blotting method using specific antibodies for adiponectin. A near-infrared fluorescence imager (“Odyssey Fc,” manufactured by LI-COR, Inc.) was used for the detection, and the various multimerization states were compared.
# [3] = 0.1 w/v % glucose + 0.1 w/v % L-fucose (test section 2) vs test section 1, tendency more pronounced at low glucose
# [4] = 0.45 w/v % glucose + 0.1 w/v % L-fucose (test section 4) vs test section 3
structure (smiles),measurement,setting,value
C[C@H](O)[C@@H](O)[C@@H](O)[C@H](O)C=O [L-fucose],expression level of adiponectin,adiponectin; 0.1 w/v % glucose + 0.1 w/v % fucose (test section 2) vs test section 1 without fucose,tendency for the expression level of adiponectin to decrease
same,expression level of adiponectin,adiponectin; 0.45 w/v % glucose + 0.1 w/v % fucose (test section 4) vs test section 3 without fucose,tendency for the expression level of adiponectin to decrease
same,expression level of PPAR-gamma,[1]; 0.1 w/v % D-glucose + 0.1 w/v % L-fucose (test section 2) vs test section 1,almost no change
same,expression level of PPAR-gamma,[1]; 0.45 w/v % D-glucose + 0.1 w/v % L-fucose (test section 4) vs test section 3,slight decrease
same,adiponectin multimers,[2]; [3],increased
same,"incidence of adiponectin monomers, trimers, and hexamers",[2]; [3],reduced
same,adiponectin multimers,[2]; [4],increased
same,"incidence of adiponectin monomers, trimers, and hexamers",[2]; [4],reduced
